Assays:
Format in all cases: physicochemical
[1] = Molecular interaction of salmon calcitonin with polylactic acid; details: for CALCITONIN CONC.: supernatant
Method: (§1) Approximately five mg of calcitonin were quantitatively weighed and placed in each of a series of 5 ml volumetric flasks. Hexafluoroacetone sesquihydrate (HFA) was added dropwise until the calcitonin dissolved completely. A 5% PGA in HFA solution was quantitatively added dropwise to each flask to provide a mass of PGA covering the range of 0 to 26.3 mg. The flasks were agitated for 5 minutes to mix the solution. Each flask was then filled to the 5 ml mark with phosphate buffer (pH 7.3). The addition of buffer precipitated the PGA plus any calcitonin that had bound with the polymer. The resulting mixture was centrifuged and the supernatant was analyzed spectrophotometrically for salmon calcitonin content. 26 mg of PGA (40,000 Mw) removed approximately 4.1 mg (83%) of salmon calcitonin.
The procedure for preparing the polylactic acid (PLA), dl-type having a molecular weight of 50,000, was similar to that used for PGA, except that methylene chloride was substituted for HFA and the calcitonin was suspended rather than dissolved in the methylene chloride. In addition, since methylene chloride and buffer are not miscible, salmon calcitonin was extracted from methylene chloride in buffer. The aqueous phase was separated, centrifuged and the supernatant was analyzed spectrophotometrically for salmon calcitonin.

[2] = Molecular interaction of salmon calcitonin with polyglycolic acid (co-precipitation, supernatant assay); details: for CALCITONIN CONC.: supernatant
Method: The present example was intended to quantify chemical and/or physical association between salmon calcitonin and polyglycolic acid (PGA) having a molecular weight of 40,000 Daltons.
as §1

[3] = In vitro release of salmon calcitonin from microspheres; details: in the phosphate buffer, pH 7.4, 37° C.
Method: Twenty mg of PGA-salmon calcitonin microspheres were loaded into a test tube. Ten ml of a 0.1M phosphate buffer, pH 7.4, containing EDTA were added and the tubes transferred to a 37° C. water bath. Nineteen μg salmon calcitonin/mg microspheres were released initially as a burst. This initial release was followed by a fast release of 50% of the total drug in less than two hours. At this point, a slow release followed and 22 μg salmon calcitonin/mg microspheres (22% of total drug) was released in the following 29 hours.

[4] = Molecular interaction of salmon calcitonin with poly(glycolic-Co-lactic acid); details: for CALCITONIN CONC.: supernatant
Method: as §1
The procedure of preparing the poly(glycolic-Co-lactic acid) (PGL) having a molecular weight of 50,000 microspheres was similar to that used for PGA, except the hexafluoro-2-propanol was substituted for HFA. Above 8 mg of PGL over 80% of salmon calcitonin was removed.

For salmon calcitonin, the “% CALCITONIN REMOVED” value ([1]; PLA mass 0.00 mg) was 1.03%, the “CALCITONIN REMOVED” value ([1]; PLA mass 0.00 mg) was 0.055 mg and the “% CALCITONIN REMOVED” value ([1]; PLA mass 2.68 mg) was 40.8%. The “CALCITONIN REMOVED” value ([1]; PLA mass 2.68 mg) was 2.04 mg, the “% CALCITONIN REMOVED” value ([1]; PLA mass 4.81 mg) was 47.2% and the “CALCITONIN REMOVED” value ([1]; PLA mass 4.81 mg) was 2.36 mg. For the same substance, the “% CALCITONIN REMOVED” value ([1]; PLA mass 10.28 mg) was 55.4%, the “CALCITONIN REMOVED” value ([1]; PLA mass 10.28 mg) was 2.77 mg and the “% CALCITONIN REMOVED” value ([1]; PLA mass 14.95 mg) was 72.4%. For the same substance, the “CALCITONIN REMOVED” value ([1]; PLA mass 14.95 mg) was 3.62 mg, the “% CALCITONIN REMOVED” value ([1]; PLA mass 20.40 mg) was 60.3% and the “CALCITONIN REMOVED” value ([1]; PLA mass 20.40 mg) was 3.02 mg. For the same substance, the “CALCITONIN CONC.” value ([1]; PLA mass 0.00 mg) was 1.05 mg/mL, the “CALCITONIN CONC.” value ([1]; PLA mass 2.68 mg) was 0.592 mg/mL and the “CALCITONIN CONC.” value ([1]; PLA mass 4.81 mg) was 0.488 mg/mL. For the same substance, the “CALCITONIN CONC.” value ([1]; PLA mass 10.28 mg) was 0.386 mg/mL, the “CALCITONIN CONC.” value ([1]; PLA mass 14.95 mg) was 0.276 mg/mL and the “CALCITONIN CONC.” value ([1]; PLA mass 20.40 mg) was 0.417 mg/mL. The salmon calcitonin removed ([2]; 26 mg of PGA (40,000 Mw)) was “approximately 4.1 mg”, the “salmon calcitonin removed (percent)” value ([2]; 26 mg of PGA (40,000 Mw)) was ~83% and the “% CALCITONIN REMOVED” value ([2]; PGA mass 0.00 mg) was 1.90%. The “CALCITONIN REMOVED” value ([2]; PGA mass 0.00 mg) was 0.099 mg, the “% CALCITONIN REMOVED” value ([2]; PGA mass 5.73 mg) was 2.71% and the “CALCITONIN REMOVED” value ([2]; PGA mass 5.73 mg) was 0.125 mg. The “% CALCITONIN REMOVED” value ([2]; PGA mass 7.81 mg) was 22.3%, the “CALCITONIN REMOVED” value ([2]; PGA mass 7.81 mg) was 1.07 mg and the “% CALCITONIN REMOVED” value ([2]; PGA mass 7.89 mg) was 6.80%. For the same substance, the “CALCITONIN REMOVED” value ([2]; PGA mass 7.89 mg) was 0.340 mg, the “% CALCITONIN REMOVED” value ([2]; PGA mass 10.4 mg) was 54.0% and the “CALCITONIN REMOVED” value ([2]; PGA mass 10.4 mg) was 2.54 mg. For the same substance, the “% CALCITONIN REMOVED” value ([2]; PGA mass 11.8 mg) was 38.0%, the “CALCITONIN REMOVED” value ([2]; PGA mass 11.8 mg) was 1.71 mg and the “% CALCITONIN REMOVED” value ([2]; PGA mass 13.2 mg) was 32.7%. For the same substance, the “CALCITONIN REMOVED” value ([2]; PGA mass 13.2 mg) was 1.64 mg, the “% CALCITONIN REMOVED” value ([2]; PGA mass 14.0 mg) was 41.2% and the “CALCITONIN REMOVED” value ([2]; PGA mass 14.0 mg) was 2.02 mg. The “% CALCITONIN REMOVED” value ([2]; PGA mass 15.8 mg) was 53.7%, the “CALCITONIN REMOVED” value ([2]; PGA mass 15.8 mg) was 2.69 mg and the “% CALCITONIN REMOVED” value ([2]; PGA mass 18.4 mg) was 77.4%. The “CALCITONIN REMOVED” value ([2]; PGA mass 18.4 mg) was 3.87 mg, the “% CALCITONIN REMOVED” value ([2]; PGA mass 21.0 mg) was 82.1% and the “CALCITONIN REMOVED” value ([2]; PGA mass 21.0 mg) was 4.10 mg. The “% CALCITONIN REMOVED” value ([2]; PGA mass 22.3 mg) was 58.6%, the “CALCITONIN REMOVED” value ([2]; PGA mass 22.3 mg) was 2.95 mg and the “% CALCITONIN REMOVED” value ([2]; PGA mass 23.7 mg) was 72.4%. For the same substance, the “CALCITONIN REMOVED” value ([2]; PGA mass 23.7 mg) was 3.62 mg, the “% CALCITONIN REMOVED” value ([2]; PGA mass 26.3 mg) was 82.6% and the “CALCITONIN REMOVED” value ([2]; PGA mass 26.3 mg) was 4.13 mg. The “CALCITONIN CONC.” value ([2]; PGA mass 0.00 mg) was 1.020 mg/mL, the “CALCITONIN CONC.” value ([2]; PGA mass 5.73 mg) was 0.895 mg/mL and the “CALCITONIN CONC.” value ([2]; PGA mass 7.81 mg) was 0.746 mg/mL. For the same substance, the “CALCITONIN CONC.” value ([2]; PGA mass 7.89 mg) was 0.932 mg/mL, the “CALCITONIN CONC.” value ([2]; PGA mass 10.4 mg) was 0.432 mg/mL and the “CALCITONIN CONC.” value ([2]; PGA mass 11.8 mg) was 0.558 mg/mL. For the same substance, the “CALCITONIN CONC.” value ([2]; PGA mass 13.2 mg) was 0.673 mg/mL, the “CALCITONIN CONC.” value ([2]; PGA mass 14.0 mg) was 0.576 mg/mL and the “CALCITONIN CONC.” value ([2]; PGA mass 15.8 mg) was 0.461 mg/mL. The “CALCITONIN CONC.” value ([2]; PGA mass 18.4 mg) was 0.226 mg/mL, the “CALCITONIN CONC.” value ([2]; PGA mass 21.0 mg) was 0.175 mg/mL and the “CALCITONIN CONC.” value ([2]; PGA mass 22.3 mg) was 0.422 mg/mL. For the same substance, the “CALCITONIN CONC.” value ([2]; PGA mass 23.7 mg) was 0.276 mg/mL, the “CALCITONIN CONC.” value ([2]; PGA mass 26.3 mg) was 0.174 mg/mL and the “time salmon calcitonin remains stable” value [3] was “about 35 hours”. The “% CALCITONIN REMOVED” value ([4]; PGL mass 0.00 mg) was 11.1%, the “CALCITONIN REMOVED” value ([4]; PGL mass 0.00 mg) was 0.591 mg and the “% CALCITONIN REMOVED” value ([4]; PGL mass 2.64 mg) was 19.9%. The “CALCITONIN REMOVED” value ([4]; PGL mass 2.64 mg) was 0.995 mg, the “% CALCITONIN REMOVED” value ([4]; PGL mass 4.13 mg) was 43.9% and the “CALCITONIN REMOVED” value ([4]; PGL mass 4.13 mg) was 2.15 mg. For the same substance, the “% CALCITONIN REMOVED” value ([4]; PGL mass 5.52 mg) was 51.8%, the “CALCITONIN REMOVED” value ([4]; PGL mass 5.52 mg) was 2.69 mg and the “% CALCITONIN REMOVED” value ([4]; PGL mass 6.51 mg) was 59.8%. For the same substance, the “CALCITONIN REMOVED” value ([4]; PGL mass 6.51 mg) was 2.87 mg, the “% CALCITONIN REMOVED” value ([4]; PGL mass 8.45 mg) was 80.8% and the “CALCITONIN REMOVED” value ([4]; PGL mass 8.45 mg) was 3.64 mg. For the same substance, the “% CALCITONIN REMOVED” value ([4]; PGL mass 11.53 mg) was 87.5%, the “CALCITONIN REMOVED” value ([4]; PGL mass 11.53 mg) was 4.37 mg and the “% CALCITONIN REMOVED” value ([4]; PGL mass 13.57 mg) was 92.5%. The “CALCITONIN REMOVED” value ([4]; PGL mass 13.57 mg) was 4.44 mg, the “% CALCITONIN REMOVED” value ([4]; PGL mass 20.97 mg) was 91.6% and the “CALCITONIN REMOVED” value ([4]; PGL mass 20.97 mg) was 4.95 mg. The “salmon calcitonin removed (percent)” value ([4]; above 8 mg of PGL) was “over 80%”, the “CALCITONIN CONC.” value ([4]; PGL mass 0.00 mg) was 0.941 mg/mL and the “CALCITONIN CONC.” value ([4]; PGL mass 2.64 mg) was 0.801 mg/mL. The “CALCITONIN CONC.” value ([4]; PGL mass 4.13 mg) was 0.550 mg/mL, the “CALCITONIN CONC.” value ([4]; PGL mass 5.52 mg) was 0.501 mg/mL and the “CALCITONIN CONC.” value ([4]; PGL mass 6.51 mg) was 0.386 mg/mL. For the same substance, the “CALCITONIN CONC.” value ([4]; PGL mass 8.45 mg) was 0.172 mg/mL, the “CALCITONIN CONC.” value ([4]; PGL mass 11.53 mg) was 0.125 mg/mL and the “CALCITONIN CONC.” value ([4]; PGL mass 13.57 mg) was 0.0725 mg/mL. The “CALCITONIN CONC.” value ([4]; PGL mass 20.97 mg) was 0.0908 mg/mL.

From patent US20020051808A1, “Drug delivery system involving interaction between protein or polypeptide and hydrophobic biodegradable polymer” (priority 1995, published 2002)
